The test system of one series is bacteria. The following applies: cited from earlier work. The source says:
One of the most intensively researched proline-rich AMPs is bactenecin-7 (Bac7). It is a 60 amino acid long linear peptide that was first isolated from bovine neutrophils. […] Measuring the antimicrobial activity of heavily mutated variants was valuable to determine the sequence-activity relationship of Bac7_1-23 because (i) the activity of specific amino acid res ... || Bac7PS excelled over Bac7_1-23 in terms of antimicrobial activity against clinical isolates including MDR bacteria and a decreased dependency on the SbmA transporter (Fig. 4a; Table 2). […] We mainly attribute the activity gain to the increased ability to penetrate membranes, which was accompanied by a slight increase in membrane damage at higher concentrations compared to Bac7_1-23 (Fig. 4b; Additional file 1 ...

In the next series the test system is bacterial membranes. The following applies: cited from earlier work. The method, then:
We next investigated whether an increased propensity to damage membranes could be the reason for the improved antimicrobial activity of Bac7PS. Membrane damage is the most frequent way AMPs kill bacteria and is often considered the reason for high toxicity against eukaryotic cells. […] Consequently, we investigated if Bac7PS had acquired a tendency to damage membranes, which could imply a greater risk for systemic human applications. Cell damage was assessed by measuring leakage of green fluorescent protein (GFP), ex ...

For a further series, the system named is mouse red blood cells. The experiment in a line: Hemolysis assay. It is filed as cell-based. Conditions: 1 h, 37°C, DPBS, relative to Triton-X100 lysis control, triplicates. The method, then: Mouse blood was obtained from the ETH Phenomics Center. The erythrocytes were isolated by centrifugation at 500 × g for 10 min and removal of the blood plasma. The cells were washed three times by gently resuspending them in an equal volume of DPBS followed by centrifugation. After the last resuspension, the cells were diluted 1:50 in DPBS. For the hemolysis assay, a log2-serial dilution of each peptide was prepared as described for the MIC but using DPBS and 96-well plates (U-bottom, PP, 650201, Greiner) with a final volume of 100 μl. As lysis control, 2.5% Triton-X100 in DPBS was used in well 10, well 11 served as non-treated control (no peptide added), and well 12 as blank. To each well of the dilution plate, 100 μl of the red blood cells suspension was added. The plate was incubated for 1 h at 37°C. After incubation, the plate was centrifuged at 500 × g for 10 min and 100 μl of the supernatant was transferred to a clean 96-well plate (F-bottom, PS, 655101, Greiner). The absorbance was measured at 540 nm using an Infinite M1000 PRO plate reader (Tecan) and corrected by the measurements from the untreated wells. The lysis of each peptide concentration was expressed relative to the lysis control (set as 100% lysis). The hemolysis assay was performed in biological triplicates.

Series [1] relates to E. coli TOP10. It is filed as cell-based. The following applies: MHB II, 18 h, 37°C, averaged (n>3), <5% of OD of growth control. The method, then:
(§1) Bacterial cells were grown in cation-adjusted Mueller Hinton Broth (MHB II) overnight to stationary phase. The cultures were then supplemented with 200 g l^−1 glycerol, aliquoted, and frozen at −80°C. […] The purified peptides were thawed and the concentration was determined by RP-HPLC as described before. The peptides were diluted with sterile water to 4-fold the desired assays starting concentration and to a final volume of 50 μl. […] The first well of each MIC dilution series was filled with 20 μl of 2-fold concentrated MHB II, wells 2–11 with 20 μl of MHB II, and well 12 with 40 μl MHB II (sterility control). Next, 20 μl of the peptide dilution was added to the first well, mixed, and a log2-serial dilution was performed from wells 1 to 10 (20 μl transfer volume). Well 11 served as growth control (i.e., no peptide added). In the last step, 20 μl of the bacterial cell suspension was added to wells 1–11 either using the pipetting robot (E. coli TOP10, BW25113, BW25113 ΔsbmA, and ATCC 25922) or by manual pipetting (E. coli clinical isolates). The plates were sealed airtight and incubated for 18 h without shaking at 37°C before reading the OD using an Infinite 200 PRO plate reader (Tecan, Männedorf, CH). The MIC value corresponded to the concentration at which no growth of the bacterial strain was observed (< 5% of the OD value of the growth control) and was evaluated using a custom-written script in the programming language R. MIC values of E. coli TOP10, BW25113, BW25113 ΔsbmA, and ATCC 25922 were determined at least in biological triplicates. All MIC experiments were determined in technical replicate.

The next series concerns E. coli BW25113 ΔsbmA. It is filed as cell-based. As to the method:
as §1

In a further series the test system is E. coli BW25113. It is filed as cell-based. Conditions: E. coli BW25113 parental strain; MHB II; 18 h, 37°C; averaged (n>3). As to the method:
as §1

In series [2] the test system is E. coli clinical isolates. It is filed as cell-based. The following applies: clinical isolates of E. coli (n=45) including MDR (ESBL, CRE); MHB II; 18 h, 37°C. As to the method: as §1
The next series deals with E. coli ATCC 25922. It is filed as cell-based. Conditions: E. coli ATCC 25922 quality control strain; MHB II; 18 h, 37°C; averaged (n>3). The method, then:
as §1

The next series has as its system HeLa cells. The series is described as follows: In vitro toxicity assay (MTT), HeLa. It is filed as cell-based, human. As to the method:
(§2) HeLa epithelioid cervix carcinoma cells (originally purchased: 93021013, Sigma Aldrich) and HEK 293 human embryonic kidney (originally purchased: 85120602, Sigma Aldrich) were routinely cultivated in Dulbecco’s MEM high glucose (DMEM, with L-glutamine, without phenol red, 1-26P32, Bioconcept, Allschwil, CH), supplemented with 10% fetal bovine serum (heat inactivated, sterile filtered, F9665, Sigma Aldrich) and 100 IU ml^−1/100 μg ml^−1 Penicillin/streptomycin (4-01F00, Bioconcept) at 37°C with 5% CO2. Cells were split at a confluency of ≤ 90% (every 3 to 4 days) and maintained for max. 10 passages before a fresh aliquot of cells were seeded. […] The cell concentration was determined using a Countess 2 device (Thermo Fisher Scientific) and approx. 5000 (HeLa) or 25,000 (HEK 293) cells were seeded into wells of a 96-well plate (F-bottom, PS, 655180, Greiner) together with 100 μl DMEM. […] For each dilution series, the IC50 value was determined by computing a weighted n-parameters logistic regression using the “nplr” package in R (https://CRAN.R-project.org/package=nplr). […]

Series [3] deals with E. coli TOP10. The experiment in a line: Membrane damage assay in MHB II (GFP loss, PI uptake). It is filed as cell-based. The following applies: at the MIC up to 8-fold higher concentrations, n = 3.
The next series concerns HEK 293 cells. It is filed as cell-based, human. The following applies: MTT, 24 h, 37°C, triplicates, read-out: Toxicity IC50. The method, then: as §2

“And” between values parts separate entries of the source, which are not always exact repeats. Equal values may be shown once. Where no end group is shown, it is not given here.

On to “Bac7: 60 amino acid long linear peptide first isolated from bovine neutrophils”, for which the “activity against species of Gram-negative Enterobacteriaceae” value in the series on bacteria was “high activity”. Besides, the “damage of bacterial membranes at its MIC” value in the series on bacterial membranes is given as “not damage bacterial membranes”.
For RRIRPRPPRLPRPRPRPLPFPRP [Bac7_1-23], the “Hemolysis of mouse red blood cells” value with mouse red blood cells (1xMIC (MIC measured for E. coli ATCC 25922)) is < 4% and 2.1%; in the series on mouse red blood cells (4xMIC (MIC measured for E. coli ATCC 25922)), < 7% and 6.4%. For the same substance, the MIC with E. coli TOP10 [1] amounted to 4.6 µM; with E. coli BW25113 ΔsbmA (MHB II, 18 h, 37°C, averaged (n>3)), 52.1 µM; in the series with E. coli BW25113, 7.4 µM; in the series on E. coli ATCC 25922 it was 2.8 µM. For the same substance, in the series on E. coli BW25113 ΔsbmA, the “antimicrobial activity against the SbmA transporter knockout strain” value is “largely inactive”. This substance also displayed an MIC50 in [2] of 7.5 µM. Moreover, the half-maximal inhibitory concentration (IC50) was determined as 1.46 mM with HeLa cells (HeLa, MTT, 24 h, 37°C, triplicates) and 1.97 mM in the series on HEK 293 cells. The “therapeutic index (TI), Toxicity/MIC” value with HeLa cells (IC50 HeLa divided by MIC50 from clinical isolates) is 195. Further, the PI-positive cells in the series with E. coli TOP10 [3] is ~ 1%. Also, in the series with E. coli TOP10 [3], the “cells that retained GFP levels” value is ~ 99%.

Values taken from PMC9112550, “Optimization of the antimicrobial peptide Bac7 by deep mutational scanning” (BMC Biology, 2022).
